Earlier results on 3 compounds are cited in US20060160783A1, “Novel omeprazole forms and related methods” (Transform Pharmaceuticals, Inc., priority 2004, published 2006).

For data set [1] the following is noted: according to the '188 Patent.
Assay in data set [2]: not given
The source holds these as a separate data set.

With `COc1ccc2[n-]c([S+]([O-])Cc3ncc(C)c(OC)c3C)nc2c1.[Na+]` (centres unmarked) [omeprazole sodium form A], the hygroscopicity entry in data set [1] is “very hygroscopic”.
For the compound `COc1ccc2[n-]c([S+]([O-])Cc3ncc(C)c(OC)c3C)nc2c1.[Na+]` (centres unmarked) [Omeprazole sodium salt form B], the hygroscopicity entry in data set [1] was “less hygroscopic than omeprazole form A”.
In the case of `COc1ccc2[nH]c([S+]([O-])Cc3ncc(C)c(OC)c3C)nc2c1` (centres unmarked) [Omeprazole, 5-methoxy-2-[[(4-methoxy-3,5-dimethyl-2-pyridinyl)methyl]sulfinyl]-1H-benzimidazole], the “stability in acidic aqueous solutions” value is on record as “degrades very rapidly”. For the same compound, the “solubility in alkaline solutions” value in data set [2] (alkaline solutions, as a negatively charged ion) is “very soluble”. For the same compound, the solubility in water entry in data set [2] (water) is “only slightly soluble”.
